# From patent US20240358017A1, “SPIDER WEB ERADICATION AND SPIDER REPELLANT COMPOUND AND METHODS OF USE” (DALRAY, LLC., priority 2023, published 2024)
# Test system: spider web
# Test: web eradication / degradation of spider webs by the formulations
# Design: species or system spiders
# Settings: comparison among the presented formulations; research by the inventors to-date
# Description: As to the organic acid components of the above formulations, the chemical reaction for web degradation is exemplified by the following: As mentioned, the pH of compositions within the present invention(s) is an important feature of efficacy. […] As compositions of the present invention(s) are fabricated, the constituencies should be adjusted, as needed, to achieve end products of such acidity. Use of the formulations of the present invention is straight forward. In the simplest form, the solutions can be applied by a simple hand-pump garden sprayer. More pressurized, long-reach delivery may be achieved through various motorized pump systems as are readily available in the marketplace. After observed degradation of the target webs, the resulting “clumps” of digested webs may be simply rinsed from any surface with water.
substance,measurement,value
Lauramidopropyl Betaine,efficacy of web eradication (web degradation),effectively equivalent performance as Cocamipropyl Betaine
